# Experimental data: patent EP4775208A1, “USE OF PRMT5 INHIBITOR IN TREATMENT OF TUMORS OR CANCERS” (Apeiron Therapeutics (Hong Kong) Ltd., priority 2023, dated 2025)
# Like-named read-outs stand apart in the source and are kept apart here.
# Experiments:
# [1] = system: LN18 MTAP-overexpressing cells; test: Inhibition of proliferation of LN18 MTAP-overexpressing cells (CellTiter-Glo); assay type: cell-based; settings: cell proliferation, 7 days
# Text: Test 6: Assay for Inhibitory Activity of Compounds against LN18 MTAP-Overexpressing Cell Proliferatio
# Materials and Cells: The LN18 MTAP-overexpressing cell line was purchased from Cobioer Biosciences (China). Cell culture media, fetal bovine serum (FBS), and penicillin-streptomycin were purchased from Thermo Fisher Scientific (USA). 384-well plates were purchased from PerkinElmer (USA). The CellTiter-Glo assay kit was purchased from Promega (USA).
# Cell Culture: LN18 MTAP-overexpressing cells were cultured in a medium supplemented with 10% fetal bovine serum (FBS) and 1% penicillin-streptomycin at 37°C with 5% CO2. Only cells in the logarithmic growth phase were used for experiments.
# Cell Proliferation Inhibition Assay: The antiproliferative activity of the compounds against LN18 MTAP-overexpressing cells was assessed using the CellTiter-Glo assay kit. Cell suspensions were adjusted to the appropriate density and seeded into 384-well plates at a volume of 40 µL per well, then incubated overnight at 37°C with 5% CO2. Compounds (40 nL) were added to each well to achieve final concentrations ranging from 0 to 10,000 nM (starting concentration 10,000 nM, 3-fold serial dilutions, 9 dose points), with a final DMSO concentration of […]. The cell plates were incubated at 37°C with 5% CO2 for 7 days. Subsequently, 40 µL of CellTiter-Glo reagent was added to measure cell viability.
# LN-18 = test: Mini cell panel: inhibition of proliferation of LN-18 cells; assay type: cell-based
# Text: (§1) Test 9: Mini Cell Panel: Assay for Inhibitory Activity of Compounds against Proliferation of 20 Tumor Cell Lines
# (§2) Materials and Cells: Fifteen MTAP(-/-) cell lines and five MTAP wild-type cell lines were purchased from ATCC (USA). Cell culture media, fetal bovine serum (FBS), and penicillin-streptomycin were purchased from Thermo Fisher Scientific (USA). 384-well plates were purchased from PerkinElmer (USA). The CellTiter-Glo assay kit was purchased from Promega (USA). Paclitaxel was used as the control compound.
# MKN-45 = test: Mini cell panel: inhibition of proliferation of MKN-45 cells; assay type: cell-based
# Text: as §1, §2
# U87MG = test: Mini cell panel: inhibition of proliferation of U87MG cells; assay type: cell-based; settings: MTAP (-/-)
# Text: as §1, §2
# ACHN = test: Mini cell panel: inhibition of proliferation of ACHN cells; assay type: cell-based; settings: MTAP (-/-)
# Text: as §1, §2
# A549 = test: Mini cell panel: inhibition of proliferation of A549 cells; assay type: cell-based
# Text: as §1, §2
# LU99 = test: Mini cell panel: inhibition of proliferation of LU99 cells; assay type: cell-based
# Text: as §1, §2
# NCI-H647 = test: Mini cell panel: inhibition of proliferation of NCI-H647 cells; assay type: cell-based
# Text: as §1, §2
# SK-MEL-5 = test: Mini cell panel: inhibition of proliferation of SK-MEL-5 cells; assay type: cell-based; settings: Homo sapiens, MTAP (-/-)
# Text: as §1, §2
# CFPAC-1 = test: Mini cell panel: inhibition of proliferation of CFPAC-1 cells; assay type: cell-based
# Text: as §1, §2
# [2] = system: five MTAP wild-type cell lines; test: Mini cell panel: summary over the MTAP wild-type cell lines; assay type: cell-based
# Text: as §1, §2
# NCI-H838 MTAP(-/-) cells = test: Inhibition of proliferation of NCI-H838 MTAP(-/-) cells (CellTiter-Glo); settings: read-out: IC50(nM) NCI-H838 MTAP(-/-)
# [3] = Homo sapiens, LN-18, MTAP (-/-)
# [4] = Homo sapiens, MKN-45, MTAP (-/-)
# [5] = Homo sapiens, Lu-99, MTAP (-/-)
# [6] = Homo sapiens, NCI-H647, MTAP (-/-)
# [7] = Homo sapiens, CFPAC-1, MTAP Wild type
# [8] = read-out: median IC50, MTAP wild-type cells
# [9] = span over the cell lines, read-out: IC50 values (range) against MTAP wild-type cells
"IC50 (NCI-H838 MTAP(-/-) cells; Homo sapiens, NCI-H838, 144 h)",Compound,"IC50 ([1]; Homo sapiens, LN-18, 168 h)",IC50 (LN-18; [3]),IC50 (MKN-45; [4]),"IC50 (U87MG; Homo sapiens, U-87 MG)","IC50 (ACHN; Homo sapiens, ACHN)","IC50 (A549; Homo sapiens, A549, MTAP (-/-))",IC50 (LU99; [5]),IC50 (NCI-H647; [6]),IC50 (SK-MEL-5),IC50 (CFPAC-1; [7]),"IC50 [2, 8]","IC50 [2, 9]",other results
,"CN(C(=O)c1cc2c(cn1)nc(N)c1cncn12)[C@@H]1COc2cc(C(F)(F)F)ccc21 [Example 4, (S)-4-amino-N-methy 1-N-(6-(trifluoromethy 1)-2,3-dihydrobenzofuran-3-yl)imidazo[1,5-a]pyrido[3,4-e]pyrazine-8-carboxamide]",868 nM,7.8 nM,17.8 nM,148 nM,4.7 nM,20.2 nM,21.8 nM,16 nM,> 1000 nM,407 nM,1710 nM,407 to 6600 nM,
66.8 nM,"[2H]C([2H])([2H])N(C(=O)c1ccc2nc(N)c3cncn3c2c1)[C@@H]1COc2cc(C(F)(F)F)ccc21 [Example 16, (S)-4-amino-N-(methyl-d3)-N-(6-(trifluoromethyl)-2,3-dihydrobenzofuran-3-yl)imidaz o[1,5-a]quinoxaline-8-carboxamide]",1200 nM,,,,,,,,,,,,
57.6 nM,"[2H]C([2H])([2H])N(C(=O)c1cc2c(cc1F)nc(N)c1cncn12)[C@@H]1COc2cc(C(F)(F)F)ccc21 [Example 41, (S)-4-amino-7-fluoro-N-(methyl-d3)-N-(6-(trifluoromethyl)-2,3-di hydrobenzofuran-3-yl)imidazo[1,5-a]quinox aline-8-carboxamide]",1970 nM,,,,,,,,,,,,
,"(S)-4-amino-7-fluoro-N-methyl-N-(6-(triflu oromethyl)-2,3-dihydr obenzofuran-3-yl)imi dazo[1,5-a]quinoxalin e-8-carboxamide [Example 29]",,,,,,,,,,,3300 nM,,"IC50 [1]: 812 nM; IC50 (LN-18; MTAP (-/-)): 5.4 nM; IC50 (MKN-45; MTAP (-/-)): 39.8 nM; IC50 (U87MG): 1040 nM; IC50 (ACHN): 2.9 nM; IC50 (A549; MTAP (-/-)): 8.5 nM; IC50 (LU99; MTAP (-/-)): 37.4 nM; IC50 (NCI-H647; MTAP (-/-)): 41.6 nM; IC50 (CFPAC-1; MTAP Wild type): 1060 nM; IC50 (NCI-H838 MTAP(-/-) cells; cell proliferation, 6 days, CellTiter-Glo): 76.8 nM"

Compound,"IC50 (NCI-H838 MTAP(-/-) cells; Homo sapiens, NCI-H838, 144 h)","IC50 ([1]; Homo sapiens, LN-18, 168 h)",IC50 (LN-18; [3]),IC50 (MKN-45; [4]),"IC50 (U87MG; Homo sapiens, U-87 MG)","IC50 (ACHN; Homo sapiens, ACHN)","IC50 (A549; Homo sapiens, A549, MTAP (-/-))",IC50 (LU99; [5]),IC50 (NCI-H647; [6]),IC50 (SK-MEL-5),IC50 (CFPAC-1; [7]),"IC50 [2, 8]","IC50 [2, 9]",other results
"CN(C(=O)c1ccc2nc(N)c3cncn3c2c1)[C@@H]1COc2cc(C(F)(F)F)ccc21 [Example 107, (S)-4-amino-N-methy 1-N-(6-(trifluoromethy 1)-2,3-dihydrobenzofuran-3-yl)imidazo[1,5-a]quinoxaline-8-carboxamide]",67.8 nM,1370 nM,9.4 nM,43.1 nM,327 nM,2.7 nM,69.1 nM,39.6 nM,30 nM,> 1000 nM,781 nM,3330 nM,≥ 781 nM,
